Measurements: US4677126A, “Oxa-fenchyl esters and amides of alpha-L-aspartyl-D-phenylglycine” (The Procter & Gamble Company, priority 1986, dated 1987)
Square brackets hold non-standard residues; d marks the D form. Peptide text beside a SMILES is read from it. Phg = N[C@H](C(=O)O)c1ccccc1

experiment: Sweetness intensity relative to sucrose, taste panel; format: in vivo, human; conditions: based on informal panel testing
Excerpt: The sweetness intensity of the esters and amides of the present invention relative to sucrose can be determined according to the following procedure:
Male subjects are chosen at random from a group of about 20 persons who have previously been selected on the basis of proven tasting acuity, i.e., persons who could easily recognize the four basic tastes (sweet, sour, bitter and salty) and who are adept at quantifying their own physiological response numerically. The subjects are asked to taste and expectorate about 10 ml of a test sample (temperature of about 22° C.) having dissolved therein the ester or amide. […] Sweetness intensity of the test sample is recorded by the subject making a mark on the linear scale at a point they consider equal in sweetness among the standard samples; interpolation between standards is encouraged. After completion of the panel, a five point numeric scale is superimposed on the linear scales to obtain numerical data; data is averaged and recorded to the nearest 0.25 unit. Equivalent sucrose sweetness is determined by referring to graphs of (w/v) sucrose concentration in the standard samples versus a linear numeric scale.
Sweetness intensity is calculated by dividing the concentration (w/v) of perceived sweetness by the concentration (w/v) of the ester or amide required to produce that sweetness. […]

SMILES | Sweetness (× Sucrose)
CC12CCC(O1)C(C)(C)C2OC(=O)[C@H](NC(=O)[C@@H](N)CC(=O)O)c1ccccc1 (stereo partly drawn) [Example 2, alpha-L-Aspartyl-D-phenylglycine-alpha-7-oxa-fenchyl ester] | 1000 × Sucrose

same assay, conditions: based on informal panel testing; isolated diastereomer

SMILES | Sweetness intensity
CC12CCC(O1)C(C)(C)C2OC(=O)[C@H](NC(=O)[C@@H](N)CC(=O)O)c1ccccc1 (stereo partly drawn) [Example 2, alpha-L-Aspartyl-D-phenylglycine-alpha-7-oxa-fenchyl ester] | approximately 1000 X

experiment: not given; conditions: literature / prior patents; cited from earlier work

SMILES | sweetness intensity, times that of sucrose | taste quality
C[C@@H](NC(=O)[C@@H](N)CC(=O)O)C(=O)NC1C(C)(C)S(=O)(=O)C1(C)C | 1000 times that of sucrose | 
C[C@@H](NC(=O)[C@@H](N)CC(=O)O)C(=O)NC1C(C)(C)SC1(C)C [2,2,4,4-tetramethylthietan-3-yl] | 2000 times that of sucrose | 
CC1CCC(C)C1NC(=O)[C@@H](C)NC(=O)[C@@H](N)CC(=O)O (stereo partly drawn) [2,5 dimethylcyclopentyl] | 520 times that of sucrose | 
CC1CCCC(C)C1NC(=O)[C@@H](C)NC(=O)[C@@H](N)CC(=O)O (stereo partly drawn) [2,6-dimethylcyclohexyl] | 600 times that of sucrose | 
O=C1NS(=O)(=O)c2ccccc21 [Saccharin] | about 300 times that of sucrose | lingering bitter aftertaste
COC(=O)[C@H](Cc1ccccc1)NC(=O)[C@@H](N)CC(=O)O [aspartame, alpha-L-aspartyl-L-phenylalanine methyl ester] (H-Asp-Phe-OMe) | 150-200 times that of sucrose | approaching that of sucrose
C[C@@H](NC(=O)[C@@H](N)CC(=O)O)C(=O)NC(C1CC1)C1CC1 [dicyclopropylcarbinyl] | 1200 times that of sucrose | 
CCOC(=O)C(NC(=O)[C@@H](N)CC(=O)O)C(=O)OC1C2(C)CCC(C2)C1(C)C (stereo partly drawn) [ethyl] | 4200-5400 times that of sucrose | 
C[C@@H](NC(=O)[C@@H](N)CC(=O)O)C(=O)NC1C2(C)CCC(C2)C1(C)C (stereo partly drawn) [fenchyl] | 320 times that of sucrose | 
COC(=O)[C@@H](Cc1ccccc1)NC(=O)[C@@H](N)CC(=O)O [methyl ester of L-aspartyl-D-phenylalanine] (H-Asp-[dF]-OMe) |  | bitter
COC(=O)[C@@H](NC(=O)[C@@H](N)CC(=O)O)c1ccccc1 [methyl ester of L-aspartyl-L-phenylglycine] (H-Asp-[Phg]-OMe) | 100-1000 times that of sucrose | quite sweet
COC(=O)C(NC(=O)[C@@H](N)CC(=O)O)C(=O)OC1C2(C)CCC(C2)C1(C)C (stereo partly drawn) [methyl] | 22,200-33,200 times that of sucrose | 

experiment: not given; conditions: most carbonated beverages, pH about 2.5 to about 4.8; cited from earlier work

SMILES | hydrolytic stability in carbonated beverages
COC(=O)[C@H](Cc1ccccc1)NC(=O)[C@@H](N)CC(=O)O [aspartame, alpha-L-aspartyl-L-phenylalanine methyl ester] (H-Asp-Phe-OMe) | hydrolytically unstable
